Consider five compounds from patent US12227495B2, “Herbicidal compounds” (SYNGENTA CROP PROTECTION AG, priority 2018, dated 2025).

Common to all, as to format: in vivo
What all share (conditions): evaluated after 13 days

In assay [1] the test system is Setaria faberi (SETFA). In words: Pre-emergence herbicide test, glasshouse, percentage damage. The procedure, abridged: (§1)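 Damage was rated 13 days after spraying on a five-point scale (1=0-20% to 5=81-100%). The compound was applied at 500 g/ha unless stated otherwise, in acetone/water 50:50 plus 0.5% Tween 20, on day 1 (pre-emergence) or day 8 (post-emergence) after sowing. Plants were kept under glasshouse conditions of 24/16° C day/night and 14 h light.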

For assay [2], the system named is Echinochloa crus-galli (ECHCG). The description is as above. The procedure, abridged:
as §1

Assay [3] has as its system Lolium perenne (LOLPE). Described as above. The procedure, abridged: as §1
In assay [4] the test system is Amaranthus retoflexus (AMARE). Described as above. The procedure, abridged:
as §1

In assay [5] the test system is Ipomoea hederacea (IPOHE). The assay is described as above. The procedure, abridged:
as §1

For assay [6], the system named is Solanum nigrum (SOLNI). The assay is described as above. The procedure, abridged:
as §1

Assay [7] has as its system Setaria faberi (SETFA). In words: Post-emergence herbicide test, glasshouse, percentage damage. The procedure, abridged:
as §1

Assay [8] relates to Echinochloa crus-galli (ECHCG). The assay is described as above. The procedure, abridged: as §1
Assay [9] has as its system Lolium perenne (LOLPE). The assay is described as above. The procedure, abridged: as §1
In assay [10] the test system is Amaranthus retoflexus (AMARE). The description is as above. The procedure, abridged:
as §1

Assay [11] has as its system Ipomoea hederacea (IPOHE). Described as above. The procedure, abridged: as §1
Assay [12] deals with Solanum nigrum (SOLNI). Described as above. The procedure, abridged: as §1

As to `COc1csc(-c2ccccc2Oc2ncc(Cl)cc2F)c1` [Compound A71], in the assay with Setaria faberi (SETFA) [1] (rate 1000 g/ha), the “Pre-emergence Test SETFA percentage damage (five point scale)” value is listed as 1 (1=0-20%). Further, the “Pre-emergence Test ECHCG percentage damage (five point scale)” value in assay [2] (rate 1000 g/ha) was 1 (1=0-20%). The “Pre-emergence Test LOLPE percentage damage (five point scale)” value in the assay on Lolium perenne (LOLPE) [3] (rate 1000 g/ha) is listed as 1 (1=0-20%). Besides, the “Pre-emergence Test AMARE percentage damage (five point scale)” value in assay [4] (rate 1000 g/ha) is 5 (5=81-100%). For the same compound, the “Pre-emergence Test IPOHE percentage damage (five point scale)” value in [5] (rate 1000 g/ha) is given as 1 (1=0-20%). Moreover, the “Pre-emergence Test SOLNI percentage damage (five point scale)” value in the assay on Solanum nigrum (SOLNI) [6] (rate 1000 g/ha) was 1 (1=0-20%). Moreover, the “percentage damage caused to the plant, SETFA” value in the assay on Setaria faberi (SETFA) [7] (1000 g/ha) was 2 (2=21-40%). Moreover, in [8] (1000 g/ha), the “percentage damage caused to the plant, ECHCG” value is on record as 1 (1=0-20%). Also, in the assay with Lolium perenne (LOLPE) [9] (1000 g/ha), the “percentage damage caused to the plant, LOLPE” value was 1 (1=0-20%). In addition, the “percentage damage caused to the plant, AMARE” value in assay [10] (1000 g/ha) was 4 (4=61-80%). Besides, in assay [11] (1000 g/ha), the “percentage damage caused to the plant, IPOHE” value is given as 1 (1=0-20%). The “percentage damage caused to the plant, SOLNI” value in the assay with Solanum nigrum (SOLNI) [12] (1000 g/ha) was 5 (5=81-100%).

As for `Fc1cccc(Oc2ccc(C(F)F)cn2)c1-c1cc(C(F)F)no1` [Compound A77], the “Pre-emergence Test SETFA percentage damage (five point scale)” value with Setaria faberi (SETFA) [1] (rate 250 g/ha) is listed as 5 (5=81-100%). Also, the “Pre-emergence Test ECHCG percentage damage (five point scale)” value in assay [2] (rate 250 g/ha) is listed as 2 (2=21-40%). Further, in the assay with Lolium perenne (LOLPE) [3] (rate 250 g/ha), the “Pre-emergence Test LOLPE percentage damage (five point scale)” value is 2 (2=21-40%). Further, the “Pre-emergence Test AMARE percentage damage (five point scale)” value in assay [4] (rate 250 g/ha) was 5 (5=81-100%). Also, the “Pre-emergence Test IPOHE percentage damage (five point scale)” value in assay [5] (rate 250 g/ha) was 1 (1=0-20%). Further, the “Pre-emergence Test SOLNI percentage damage (five point scale)” value with Solanum nigrum (SOLNI) [6] (rate 250 g/ha) was 4 (4=61-80%). The “percentage damage caused to the plant, SETFA” value in the assay with Setaria faberi (SETFA) [7] (250 g/ha) was 5 (5=81-100%). Besides, the “percentage damage caused to the plant, ECHCG” value in [8] (250 g/ha) is recorded as 2 (2=21-40%). For the same compound, the “percentage damage caused to the plant, LOLPE” value with Lolium perenne (LOLPE) [9] (250 g/ha) is recorded as 2 (2=21-40%). Moreover, the “percentage damage caused to the plant, AMARE” value in [10] (250 g/ha) was 5 (5=81-100%). Moreover, the “percentage damage caused to the plant, IPOHE” value in [11] (250 g/ha) is 1 (1=0-20%). The “percentage damage caused to the plant, SOLNI” value in the assay on Solanum nigrum (SOLNI) [12] (250 g/ha) is recorded as 5 (5=81-100%).

Take `Fc1cccc(Oc2cc(C(F)(F)F)c(C(F)(F)F)cn2)c1-c1cc(C(F)F)no1` [Compound A78]: the “Pre-emergence Test SETFA percentage damage (five point scale)” value with Setaria faberi (SETFA) [1] (rate 1000 g/ha) was 2 (2=21-40%). The “Pre-emergence Test ECHCG percentage damage (five point scale)” value in assay [2] (rate 1000 g/ha) is 1 (1=0-20%). For the same compound, in the assay with Lolium perenne (LOLPE) [3] (rate 1000 g/ha), the “Pre-emergence Test LOLPE percentage damage (five point scale)” value was 1 (1=0-20%). Moreover, in assay [4] (rate 1000 g/ha), the “Pre-emergence Test AMARE percentage damage (five point scale)” value is recorded as 1 (1=0-20%). Also, the “Pre-emergence Test IPOHE percentage damage (five point scale)” value in assay [5] (rate 1000 g/ha) was 1 (1=0-20%). The “Pre-emergence Test SOLNI percentage damage (five point scale)” value with Solanum nigrum (SOLNI) [6] (rate 1000 g/ha) is 1 (1=0-20%). Also, in the assay on Setaria faberi (SETFA) [7] (1000 g/ha), the “percentage damage caused to the plant, SETFA” value is reported as 1 (1=0-20%). In addition, the “percentage damage caused to the plant, ECHCG” value in assay [8] (1000 g/ha) is on record as 1 (1=0-20%). Besides, in the assay on Lolium perenne (LOLPE) [9] (1000 g/ha), the “percentage damage caused to the plant, LOLPE” value is listed as 1 (1=0-20%). In addition, the “percentage damage caused to the plant, AMARE” value in assay [10] (1000 g/ha) is reported as 3 (3=41-60%). The “percentage damage caused to the plant, IPOHE” value in [11] (1000 g/ha) is given as 1 (1=0-20%). Further, the “percentage damage caused to the plant, SOLNI” value in the assay with Solanum nigrum (SOLNI) [12] (1000 g/ha) was 4 (4=61-80%).

On to `Fc1cccc(Oc2nc(Cl)ccc2C(F)(F)F)c1-c1cc(C(F)F)no1` [Compound A80], for which the “Pre-emergence Test SETFA percentage damage (five point scale)” value in the assay with Setaria faberi (SETFA) [1] (rate 1000 g/ha) was 1 (1=0-20%). Besides, in assay [2] (rate 1000 g/ha), the “Pre-emergence Test ECHCG percentage damage (five point scale)” value is 1 (1=0-20%). Also, the “Pre-emergence Test LOLPE percentage damage (five point scale)” value in the assay with Lolium perenne (LOLPE) [3] (rate 1000 g/ha) was 1 (1=0-20%). In addition, in [4] (rate 1000 g/ha), the “Pre-emergence Test AMARE percentage damage (five point scale)” value was 2 (2=21-40%). Besides, the “Pre-emergence Test IPOHE percentage damage (five point scale)” value in assay [5] (rate 1000 g/ha) is 1 (1=0-20%). Further, in the assay with Solanum nigrum (SOLNI) [6] (rate 1000 g/ha), the “Pre-emergence Test SOLNI percentage damage (five point scale)” value is 1 (1=0-20%). Also, the “percentage damage caused to the plant, SETFA” value in the assay with Setaria faberi (SETFA) [7] (1000 g/ha) is 1 (1=0-20%). For the same compound, in assay [8] (1000 g/ha), the “percentage damage caused to the plant, ECHCG” value is 1 (1=0-20%). Further, the “percentage damage caused to the plant, LOLPE” value in the assay with Lolium perenne (LOLPE) [9] (1000 g/ha) is listed as 1 (1=0-20%). The “percentage damage caused to the plant, AMARE” value in assay [10] (1000 g/ha) is reported as 5 (5=81-100%). In [11] (1000 g/ha), the “percentage damage caused to the plant, IPOHE” value is reported as 1 (1=0-20%). In addition, in the assay on Solanum nigrum (SOLNI) [12] (1000 g/ha), the “percentage damage caused to the plant, SOLNI” value is 5 (5=81-100%).

`Fc1cc(Cl)cnc1Oc1ccccc1-n1ncc(C(F)(F)F)n1` [Compound A81]: the “Pre-emergence Test SETFA percentage damage (five point scale)” value in the assay with Setaria faberi (SETFA) [1] (rate 1000 g/ha) is given as 4 (4=61-80%). Besides, the “Pre-emergence Test ECHCG percentage damage (five point scale)” value in assay [2] (rate 1000 g/ha) is recorded as 4 (4=61-80%). The “Pre-emergence Test LOLPE percentage damage (five point scale)” value in the assay on Lolium perenne (LOLPE) [3] (rate 1000 g/ha) is reported as 1 (1=0-20%). In assay [4] (rate 1000 g/ha), the “Pre-emergence Test AMARE percentage damage (five point scale)” value was 5 (5=81-100%). Moreover, the “Pre-emergence Test IPOHE percentage damage (five point scale)” value in assay [5] (rate 1000 g/ha) is on record as 2 (2=21-40%). The “Pre-emergence Test SOLNI percentage damage (five point scale)” value with Solanum nigrum (SOLNI) [6] (rate 1000 g/ha) is 3 (3=41-60%). In addition, in the assay on Setaria faberi (SETFA) [7] (1000 g/ha), the “percentage damage caused to the plant, SETFA” value is 4 (4=61-80%). Further, the “percentage damage caused to the plant, ECHCG” value in assay [8] (1000 g/ha) is recorded as 4 (4=61-80%). For the same compound, the “percentage damage caused to the plant, LOLPE” value in the assay with Lolium perenne (LOLPE) [9] (1000 g/ha) is 1 (1=0-20%). Further, in assay [10] (1000 g/ha), the “percentage damage caused to the plant, AMARE” value was 5 (5=81-100%). Also, the “percentage damage caused to the plant, IPOHE” value in assay [11] (1000 g/ha) was 2 (2=21-40%). The “percentage damage caused to the plant, SOLNI” value in the assay with Solanum nigrum (SOLNI) [12] (1000 g/ha) was 4 (4=61-80%).
